# Square brackets hold non-standard residues; d marks the D form. Peptide text beside a SMILES is read from it. * marks the point of attachment. pY = N[C@@H](Cc1ccc(OP(=O)(O)O)cc1)C(=O)O; X1 = O=C(O)C(C(=O)O)*
# Experiments:
# Format in all cases: functional
# [1] = biological target: Proto-oncogene tyrosine-protein kinase Src (Homo sapiens, UniProt P12931); assay: Inhibitory activity against Src protein tyrosine kinase SH2 domain
# [2] = Inhibitory activity against SH2 domain of PI3-kinase p85
# [3] = biological target: T1, Tyrosine-protein phosphatase non-receptor type 11 (Homo sapiens, UniProt Q06124); assay: Inhibitory activity against SH2 domain of SH-PTP2 (N-terminal) binding
# T1 sequence (Q06124 whole entry): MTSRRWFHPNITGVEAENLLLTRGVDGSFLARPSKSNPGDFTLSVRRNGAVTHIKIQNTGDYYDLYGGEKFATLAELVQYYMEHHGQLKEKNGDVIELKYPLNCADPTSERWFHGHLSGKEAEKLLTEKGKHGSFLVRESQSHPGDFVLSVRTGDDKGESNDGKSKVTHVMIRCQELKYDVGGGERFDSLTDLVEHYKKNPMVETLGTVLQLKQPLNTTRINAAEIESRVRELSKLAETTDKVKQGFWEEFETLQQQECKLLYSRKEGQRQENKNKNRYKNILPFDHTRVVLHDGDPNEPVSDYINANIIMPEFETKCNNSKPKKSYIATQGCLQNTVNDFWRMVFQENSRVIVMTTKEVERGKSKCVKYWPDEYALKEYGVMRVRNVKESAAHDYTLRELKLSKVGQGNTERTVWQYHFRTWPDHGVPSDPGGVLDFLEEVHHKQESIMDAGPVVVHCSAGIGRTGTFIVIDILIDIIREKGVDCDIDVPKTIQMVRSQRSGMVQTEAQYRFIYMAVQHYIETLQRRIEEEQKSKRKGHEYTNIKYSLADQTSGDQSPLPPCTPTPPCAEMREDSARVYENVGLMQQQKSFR
# [4] = biological target: Growth factor receptor-bound protein 2 (Homo sapiens, UniProt P62993); assay: Inhibition of binding to Growth factor receptor bound protein 2 SH2 domain
# Chain of Growth factor receptor-bound protein 2 (P62993 whole entry, the tested form may be a part): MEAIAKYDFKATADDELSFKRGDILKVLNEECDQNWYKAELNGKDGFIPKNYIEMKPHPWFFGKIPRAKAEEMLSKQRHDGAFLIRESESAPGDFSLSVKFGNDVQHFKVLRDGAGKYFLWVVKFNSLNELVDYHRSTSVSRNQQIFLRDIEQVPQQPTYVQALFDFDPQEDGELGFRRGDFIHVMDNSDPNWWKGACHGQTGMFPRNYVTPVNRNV
# Chain of Proto-oncogene tyrosine-protein kinase Src (P12931 2-536 limits assumed): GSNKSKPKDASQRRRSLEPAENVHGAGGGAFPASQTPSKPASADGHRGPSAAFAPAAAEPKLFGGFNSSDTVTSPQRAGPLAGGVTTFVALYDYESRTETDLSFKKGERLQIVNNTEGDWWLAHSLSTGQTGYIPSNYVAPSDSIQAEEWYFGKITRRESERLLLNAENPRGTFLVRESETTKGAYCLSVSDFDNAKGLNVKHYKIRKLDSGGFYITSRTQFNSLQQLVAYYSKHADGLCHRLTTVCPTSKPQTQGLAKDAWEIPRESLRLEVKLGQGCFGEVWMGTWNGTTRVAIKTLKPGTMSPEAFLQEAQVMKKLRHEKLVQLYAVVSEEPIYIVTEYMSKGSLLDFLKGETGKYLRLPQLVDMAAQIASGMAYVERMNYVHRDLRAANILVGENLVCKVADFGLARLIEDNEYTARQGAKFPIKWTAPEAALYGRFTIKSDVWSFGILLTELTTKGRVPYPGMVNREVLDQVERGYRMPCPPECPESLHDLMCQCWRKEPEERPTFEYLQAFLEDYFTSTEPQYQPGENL
smiles,measurement,setting,value
CC[C@H](C)[C@H](NC(=O)[C@H](CCC(=O)O)NC(=O)[C@H](CCC(=O)O)NC(=O)[C@H](Cc1ccc(OP(=O)(O)O)cc1)NC(=O)[C@H](CCC(N)=O)NC(C)=O)C(=O)N1CCC[C@H]1C(N)=O,IC50,[1],3.2 µM
CC[C@H](C)[C@H](NC(=O)[C@H](CCC(=O)O)NC(=O)[C@H](CCC(=O)O)NC(=O)[C@H](Cc1ccc(OC(C(=O)O)C(=O)O)cc1)NC(=O)[C@H](CCC(N)=O)NC(C)=O)C(=O)N1CCC[C@H]1C(N)=O,IC50,[1],25 µM
CC[C@H](C)[C@H](NC(=O)[C@H](CCC(=O)O)NC(=O)[C@H](Cc1ccc(OC(C(=O)O)C(=O)O)cc1)NC(=O)[C@H](Cc1ccc(OC(C(=O)O)C(=O)O)cc1)NC(=O)[C@H](CCC(N)=O)NC(C)=O)C(=O)N1CCC[C@H]1C(N)=O,IC50,[1],22.8 µM
CSCC[C@H](NC(=O)[C@@H]1CCCN1C(=O)[C@@H](NC(=O)[C@H](Cc1ccc(OC(C(=O)O)C(=O)O)cc1)NC(=O)[C@H](CC(=O)O)NC(C)=O)C(C)C)C(=O)N[C@@H](CC(C)C)C(N)=O (Ac-DY(X1)VPML-NH2),IC50,[2],14.2 µM
CSCC[C@H](NC(=O)[C@@H]1CCCN1C(=O)[C@@H](NC(=O)[C@H](Cc1ccc(OP(=O)(O)O)cc1)NC(=O)[C@H](CC(=O)O)NC(C)=O)C(C)C)C(=O)N[C@@H](CC(C)C)C(N)=O (Ac-D[pY]VPML-NH2),IC50,[2],0.15 µM
CC[C@H](C)[C@H](NC(=O)[C@H](Cc1ccc(OC(C(=O)O)C(=O)O)cc1)NC(=O)[C@H](CC(N)=O)NC(=O)[C@H](CC(C)C)NC(C)=O)C(=O)N[C@@H](CC(=O)O)C(=O)N[C@@H](CC(C)C)C(=O)N[C@@H](CC(=O)O)C(=O)N[C@@H](CC(C)C)C(=O)N[C@H](C(N)=O)C(C)C (Ac-LNY(X1)IDLDLV-NH2),IC50,[3],22 µM
CC[C@H](C)[C@H](NC(=O)[C@H](Cc1ccc(OP(=O)(O)O)cc1)NC(=O)[C@H](CC(N)=O)NC(=O)[C@H](CC(C)C)NC(C)=O)C(=O)N[C@@H](CC(=O)O)C(=O)N[C@@H](CC(C)C)C(=O)N[C@@H](CC(=O)O)C(=O)N[C@@H](CC(C)C)C(=O)N[C@H](C(N)=O)C(C)C (Ac-LN[pY]IDLDLV-NH2),IC50,[3],1.54 µM
CC[C@H](C)[C@H](NC(=O)[C@H](CC(N)=O)NC(=O)[C@@H](NC(=O)[C@H](Cc1ccc(OC(C(=O)O)C(=O)O)cc1)NC(=O)[C@H](CC(N)=O)NC(C)=O)C(C)C)C(=O)N[C@@H](CCC(=O)O)C(N)=O (Ac-NY(X1)VNIE-NH2),IC50,[4],120 µM
CC[C@H](C)[C@H](NC(=O)[C@H](CC(N)=O)NC(=O)[C@@H](NC(=O)[C@H](Cc1ccc(OP(=O)(O)O)cc1)NC(=O)[C@H](CC(N)=O)NC(C)=O)C(C)C)C(=O)N[C@@H](CCC(=O)O)C(N)=O (Ac-N[pY]VNIE-NH2),IC50,[4],0.9 µM

# Source: ChEMBL document CHEMBL1128327, “L-O-(2-malonyl)tyrosine: a new phosphotyrosyl mimetic for the preparation of Src homology 2 domain inhibitory peptides” (J Med Chem, 1995)
